From patent US20250026734A1 (priority 2021, published 2025)
Values joined by “and” are separate entries in the source; they are usually repeats but may differ in a detail not shown here. Equal values may be shown once. Read-outs that look alike come from different tables or passages of the source.

Tested on: SARS-CoV-2 strains
Format: cell-based

In the case of CCCCn1c(=O)c2ccc(NCCO)cc2c2cc(C(O)(C(F)(F)F)C(F)(F)F)ccc21 [NR-31], the EC50 (read-out: EC50) is reported as 5.12 µM and 3.47 µM and 3.53 µM and 5.28 µM and 3.37 µM and 4.07 µM and 3.62 µM and the EC50 (read-out: EC50 (inhibits cell death induced by SARS-CoV-2 infection by 50%)) is reported as 4.4 µM.
